Experimental data published in ChEMBL document CHEMBL1158147, “Ultraviolet-mediated cytotoxic activity of phenylheptatriyne from Bidens pilosa L” (J Nat Prod, 1979).
Calls of active or inactive are those of the source. The rule behind the calls is not given here.

How the values were obtained:
[1] = system: DNA; assay: Photochemical activity against denatured calf thymus DNA at in dark after 180 mins by hyperchromicity test; assay type: nucleic-acid assay; details: Bos taurus
[2] = system: Staphylococcus epidermidis; assay: Phototoxicity against Staphylococcus albus at 10 ug/disk in presence of cool-white fluorescent light; assay type: functional, organism-based
[3] = system: Fusarium sp.; assay: Phototoxicity against Fusarium sp. at 10 ug/disk in presence of long wave UV light; assay type: functional, organism-based
[4] = system: Bacillus subtilis; assay: Phototoxicity against Bacillus subtilis at 10 ug/disk in dark; assay type: functional, organism-based
[5] = system: Saccharomyces cerevisiae; assay: Phototoxicity against Saccharomyces cerevisiae at 5 ug/disk after UV irradiation for 30 mins; assay type: functional; details: light or radiation study, 0.5 h, read-out: IZ
[6] = system: Kocuria rosea; assay: Phototoxicity against Micrococcus roseus UBC 289 at 10 ug/disk in presence of cool-white fluorescent light; assay type: functional, organism-based
[7] = system: Fusarium sp.; assay: Phototoxicity against Fusarium sp. at 10 ug/disk in dark; assay type: functional, organism-based
[8] = system: Candida albicans; assay: Phototoxicity against Candida albicans at 10 ug/disk in dark; assay type: functional, organism-based
[9] = system: DNA; assay: Photochemical activity against denatured calf thymus DNA at 10 ug in dark by hyperchromicity test; assay type: nucleic-acid assay; details: Bos taurus; also: unit not given here
[10] = system: Saccharomyces cerevisiae; assay: Phototoxicity against Saccharomyces cerevisiae at 10 ug/disk in presence of cool-white fluorescent light; assay type: functional, organism-based
[11] = system: Kocuria rosea; assay: Phototoxicity against Micrococcus roseus UBC 289 at 10 ug/disk in presence of long wave UV light; assay type: functional, organism-based
[12] = system: Trichophyton mentagrophytes; assay: Phototoxicity against Trichophyton mentagrophytes at 10 ug/disk in dark; assay type: functional, organism-based
[13] = system: Trichophyton mentagrophytes; assay: Phototoxicity against Trichophyton mentagrophytes at 10 ug/disk in presence of cool-white fluorescent light; assay type: functional, organism-based
[14] = system: Saccharomyces cerevisiae; assay: Phototoxicity against Saccharomyces cerevisiae at 5 ug/disk after UV irradiation for 180 mins; assay type: functional; details: light or radiation study, 3 h, read-out: IZ
[15] = system: DNA; assay: Photochemical activity against denatured calf thymus DNA at 10 ug by hyperchromicity test; assay type: nucleic-acid assay; details: Bos taurus
[16] = system: Microsporum canis; assay: Phototoxicity against Microsporum canis at 10 ug/disk in presence of cool-white fluorescent light; assay type: functional, organism-based
[17] = system: DNA; assay: Photochemical activity against denatured calf thymus DNA at 10 ug after UV irradiation with 16.00 Joules/cm'2 for 180 mins by hyperchromicity test; assay type: nucleic-acid assay; details: Bos taurus
[18] = system: Rhodotorula mucilaginosa; assay: Phototoxicity against Rhodotorula rubra Y96 at 10 ug/disk in dark; assay type: functional, organism-based
[19] = system: Nannizzia gypsea; assay: Phototoxicity against Microsporum gypseum at 10 ug/disk in presence of cool-white fluorescent light; assay type: functional, organism-based
[20] = system: Nannizzia gypsea; assay: Phototoxicity against Microsporum gypseum at 10 ug/disk in dark; assay type: functional, organism-based
[21] = system: Rhodotorula mucilaginosa; assay: Phototoxicity against Rhodotorula rubra Y96 at 10 ug/disk in presence of long wave UV light; assay type: functional, organism-based
[22] = system: Microsporum canis; assay: Phototoxicity against Microsporum canis at 10 ug/disk in dark; assay type: functional, organism-based
[23] = system: Saccharomyces cerevisiae; assay: Phototoxicity against Saccharomyces cerevisiae at 5 ug/disk after UV irradiation for 15 mins; assay type: functional; details: light or radiation study, 0.25 h, read-out: IZ
[24] = system: Saccharomyces cerevisiae; assay: Phototoxicity against Saccharomyces cerevisiae at 10 ug/disk in dark; assay type: functional, organism-based
[25] = system: Paraphyton cookei; assay: Phototoxicity against Microsporum cookei at 10 ug/disk in presence of long wave UV light; assay type: functional, organism-based
[26] = system: Sporobolomyces; assay: Phototoxicity against Sporobolomyces sp. Y138 at 10 ug/disk in presence of long wave UV light; assay type: functional, organism-based
[27] = system: Paraphyton cookei; assay: Phototoxicity against Microsporum cookei at 10 ug/disk in presence of cool-white fluorescent light; assay type: functional, organism-based
[28] = system: Saccharomyces cerevisiae; assay: Phototoxicity against Saccharomyces cerevisiae at 10 ug/disk in presence of long wave UV light; assay type: functional, organism-based
[29] = system: Escherichia coli; assay: Phototoxicity against Escherichia coli at 10 ug/disk in presence of cool-white fluorescent light; assay type: functional, organism-based
[30] = system: Candida albicans; assay: Phototoxicity against Candida albicans at 5 ug/disk after UV irradiation for 180 mins; assay type: functional; details: light or radiation study, 3 h, read-out: IZ
[31] = system: DNA; assay: Photochemical activity against denatured calf thymus DNA at in dark after 120 mins by hyperchromicity test; assay type: nucleic-acid assay; details: Bos taurus; also: unit not given here
[32] = system: Enterococcus faecalis; assay: Phototoxicity against Streptococcus faecalis at 10 ug/disk in presence of cool-white fluorescent light; assay type: functional, organism-based
[33] = system: Candida albicans; assay: Phototoxicity against Candida albicans at 10 ug/disk in presence of cool-white fluorescent light; assay type: functional, organism-based
[34] = system: Sporobolomyces; assay: Phototoxicity against Sporobolomyces sp. Y138 at 10 ug/disk in dark; assay type: functional, organism-based
[35] = system: Enterococcus faecalis; assay: Phototoxicity against Streptococcus faecalis at 10 ug/disk in presence of long wave UV light; assay type: functional, organism-based
[36] = system: Paraphyton cookei; assay: Phototoxicity against Microsporum cookei at 10 ug/disk in dark; assay type: functional, organism-based
[37] = system: DNA; assay: Photochemical activity against denatured calf thymus DNA at 10 ug in dark after 30 mins by hyperchromicity test; assay type: nucleic-acid assay; details: Bos taurus
[38] = system: Torula; assay: Phototoxicity against Torula sp. at 10 ug/disk in dark; assay type: functional, organism-based
[39] = system: Trichophyton mentagrophytes; assay: Phototoxicity against Trichophyton mentagrophytes at 10 ug/disk in presence of long wave UV light; assay type: functional, organism-based
[40] = system: Proteus mirabilis; assay: Phototoxicity against Proteus mirabilis UBC 5 at 10 ug/disk in presence of cool-white fluorescent light; assay type: functional, organism-based
[41] = system: DNA; assay: Photochemical activity against denatured calf thymus DNA 10 ug after UV irradiation with 2.67 Joules/cm'2 for 30 mins at by hyperchromicity test; assay type: nucleic-acid assay; details: Bos taurus
[42] = system: Proteus mirabilis; assay: Phototoxicity against Proteus mirabilis UBC 5 at 10 ug/disk in presence of long wave UV light; assay type: functional, organism-based
[43] = system: Fusarium sp.; assay: Phototoxicity against Fusarium sp. at 10 ug/disk in presence of cool-white fluorescent light; assay type: functional, organism-based
[44] = system: Escherichia coli; assay: Phototoxicity against Escherichia coli at 10 ug/disk in presence of long wave UV light; assay type: functional, organism-based
[45] = system: Proteus mirabilis; assay: Phototoxicity against Proteus mirabilis UBC 5 at 10 ug/disk in dark; assay type: functional, organism-based
[46] = system: DNA; assay: Photochemical activity against denatured calf thymus DNA at 10 ug after UV irradiation with 10.67 Joules/cm'2 for 120 mins by hyperchromicity test; assay type: nucleic-acid assay; details: Bos taurus; also: unit not given here
[47] = system: Staphylococcus epidermidis; assay: Phototoxicity against Staphylococcus albus at 10 ug/disk in dark; assay type: functional, organism-based
[48] = system: Escherichia coli; assay: Phototoxicity against Escherichia coli at 10 ug/disk in dark; assay type: functional, organism-based
[49] = system: Candida albicans; assay: Phototoxicity against Candida albicans at 10 ug/disk in presence of long wave UV light; assay type: functional, organism-based
[50] = system: Bacillus subtilis; assay: Phototoxicity against Bacillus subtilis at 10 ug/disk in presence of long wave UV light; assay type: functional, organism-based
[51] = system: Pseudomonas fluorescens; assay: Phototoxicity against Pseudomonas fluorescens at 10 ug/disk in dark; assay type: functional, organism-based
[52] = system: DNA; assay: Photochemical activity against denatured calf thymus DNA at 10 ug after UV irradiation with 5.33 Joules/cm'2 for 60 mins by hyperchromicity test; assay type: nucleic-acid assay; details: Bos taurus
[53] = system: Sporobolomyces; assay: Phototoxicity against Sporobolomyces sp. Y138 at 10 ug/disk in presence of cool-white fluorescent light; assay type: functional, organism-based
[54] = system: Torula; assay: Phototoxicity against Torula sp. at 10 ug/disk in presence of long wave UV light; assay type: functional, organism-based
[55] = system: Nannizzia gypsea; assay: Phototoxicity against Microsporum gypseum at 10 ug/disk in presence of long wave UV light; assay type: functional, organism-based
[56] = system: Candida albicans; assay: Phototoxicity against Candida albicans at 5 ug/disk after UV irradiation for 15 mins; assay type: functional; details: light or radiation study, 0.25 h, read-out: IZ
[57] = system: Pseudomonas fluorescens; assay: Phototoxicity against Pseudomonas fluorescens at 10 ug/disk in presence of long wave UV light; assay type: functional, organism-based
[58] = system: Enterococcus faecalis; assay: Phototoxicity against Streptococcus faecalis at 10 ug/disk in dark; assay type: functional, organism-based
[59] = system: Candida albicans; assay: Phototoxicity against Candida albicans at 5 ug/disk after UV irradiation for 30 mins; assay type: functional; details: light or radiation study, 0.5 h, read-out: IZ
[60] = system: Kocuria rosea; assay: Phototoxicity against Micrococcus roseus UBC 289 at 10 ug/disk in dark; assay type: functional, organism-based
[61] = system: Microsporum canis; assay: Phototoxicity against Microsporum canis at 10 ug/disk in presence of long wave UV light; assay type: functional, organism-based
[62] = system: Staphylococcus epidermidis; assay: Phototoxicity against Staphylococcus albus at 10 ug/disk in presence of long wave UV light; assay type: functional, organism-based
[63] = system: Pseudomonas fluorescens; assay: Phototoxicity against Pseudomonas fluorescens at 10 ug/disk in presence of cool-white fluorescent light; assay type: functional, organism-based
[64] = system: DNA; assay: Photochemical activity against denatured calf thymus DNA at 10 ug in dark after 60 mins by hyperchromicity test; assay type: nucleic-acid assay; details: Bos taurus; also: unit not given here

SMILES: COc1c2occc2cc2ccc(=O)oc12 [METHOXSALEN]
- Activity [1]: 0.17
- Activity [2]: Active
- Activity [3]: Active
- Activity [4]: inactive
- zone of inhibition at 5 µg/disc [5]: 18 mm
- Activity [6]: inactive
- Activity [7]: inactive
- Activity [8]: inactive
- Activity [9]: 0.17
- Activity [10]: Active
- Activity [11]: Active
- Activity [12]: inactive
- Activity [13]: inactive
- zone of inhibition at 5 µg/disc [14]: 20 mm
- Activity [15]: 0.18
- Activity [16]: Active
- Activity [17]: 0.18
- Activity [18]: inactive
- Activity [19]: Active
- Activity [20]: inactive
- Activity [21]: Active
- Activity [22]: inactive
- zone of inhibition at 5 µg/disc [23]: 17 mm
- Activity [24]: inactive
- Activity [25]: Active
- Activity [26]: Active
- Activity [27]: Active
- Activity [28]: Active
- Activity [29]: inactive
- zone of inhibition at 5 µg/disc [30]: 17 mm
- Activity [31]: 0.17
- Activity [32]: inactive
- Activity [33]: Active
- Activity [34]: inactive
- Activity [35]: Active
- Activity [36]: inactive
- Activity [37]: 0.17
- Activity [38]: inactive
- Activity [39]: Active
- Activity [40]: inactive
- Activity [41]: 0.18
- Activity [42]: Active
- Activity [43]: inactive
- Activity [44]: Active
- Activity [45]: inactive
- Activity [46]: 0.17
- Activity [47]: inactive
- Activity [48]: inactive
- Activity [49]: Active
- Activity [50]: Active
- Activity [51]: inactive
- Activity [52]: 0.18
- Activity [53]: Active
- Activity [54]: Active
- Activity [55]: Active
- zone of inhibition at 5 µg/disc [56]: 13 mm
- Activity [57]: inactive
- Activity [58]: inactive
- zone of inhibition at 5 µg/disc [59]: 15 mm
- Activity [60]: inactive
- Activity [61]: Active
- Activity [62]: Active
- Activity [63]: inactive
- Activity [64]: 0.17
